Reference: US20260115177A1, “MEDICINAL PRODUCTS AND METHODS FOR THE ALLEVIATION OF CANCER IMMUNOTHERA-PY-ASSOCIATED CYTOKINE RELEASE SYNDROME” (POOLBEG PHARMA (UK) LIMITED, priority 2023, published 2026)

How the values were obtained:
HUVEC endothelial cells [1] = experiment: QPCR of VCAM1, ICAM1 and IL-6 in HUVEC cells treated with sCAR; type: cell-based, human; conditions: 24 hours
Description: (§1) In like manner and also in Example 3 below, sCAR (or smCAR) is added to endothelial (HUVEC) cells, available from the American Type Culture Collection, and using an equivalent protocol to the treatment of THP-1 cells (but with individually optimised conditions, such as the concentration of sCAR used), following which IL-6 release and IL-8 release are observed. Pro-inflammatory cytokines IL-6 and IL-8 are measured using an enzyme-linked immunosorbent assay (ELISA) and IL-6, ICAM1 and VCAM1 are measured by quantitative PCR (QPCR, for which a kit is suitably obtainable from Thermo Fisher Scientific of Kingfisher Dr, Swindon SN3 5BZ, UK).
(§2) sCAR (or smCAR), produced as described in Example 1 above, is added to a monoculture of HUVEC endothelial cells in the presence of UR-13870, Ralimetinib or Acumapimod at each of the concentrations shown in Table 2 above, at 37° C., 5% CO2 and a suitably humid environment for 24 hours.

CAR T cells [2] = experiment: TNFα immunosorbent assay of CAR T:tumour cell co-culture supernatant; type: cell-based, human
Description: (§3) UR-13870, Ralimetinib or Acumapimod are each added to a culture of CD19+ cancer cells (using a micropipette to transfer the correct volume to achieve the desired final concentration in Table 2).
(§4) CAR T cells are then added to the same culture 5-10 minutes later. In brief, CAR T cell concentrations per ml are determined and used to aliquot the desired number of CAR T cells into the culture to achieve the described 1:1 CAR T to cancer cell ratio.
(§5) The co-culture containing CAR T cells and tumour cells is swirled gently to ensure homogenous dispersion of cells throughout the vessel. The resultant co-culture is incubated for 24 to 96 hours in a closed incubator at 37° C. with 5% CO2 and a suitably humid atmosphere.
Cytokine release by T cells is also quantified by TNFα enzyme-based immunosorbent assays of co-culture supernatant, as shown in FIG. 9. Ralimetinib and Acumapimod reduced TNF-α secretion following treatment. Data for UR-13870 were discarded due to failures in the UR-13870 experimental procedure.

HUVEC endothelial cells [3] = experiment: IL-6 and IL-8 ELISA of HUVEC cells treated with sCART-mono supernatant; type: cell-based, human; conditions: 24 hr, concentrations of Table 2
Description: (§6) With reference to FIG. 13 of the accompanying drawings, a co-culture (100) is established using a standard cell culture transwell dish, including a first compartment (101), containing CAR T cells and cancer cells (at a 1:1 ratio), which is separated from a second compartment (102), containing monocytes, by a semi-permeable membrane (103) composed of tissue-culture treated polyethylene terephthalate with a 0.4 μm pore size.
(§7) Each of UR-13870, Acumapimod and Ralimetinib are administered to the co-culture following a procedure analogous to that described in Example 2 above (at the concentrations as shown in Table 2 above).
(§8) The co-culture is incubated at 37° C., 5% CO2 and a suitably humid environment for 24 hours. On completion, the transwell insert is removed and supernatant is isolated. Cells and debris are removed from the supernatant by exposing the container to a centripetal force of 400 G and gently pipetting the supernatant into a new container without disturbing the cell pellet at the bottom of the previous container.
(§9) Prior to adding the p38 inhibitors and sCART-mono, endothelial cells are incubated overnight at 37° C. and 5% CO2 in a suitably humid environment to allow the cells to adhere fully to the tissue culture dish.
Supernatant levels of IL-6 and IL-8 are determined following 24 hr treatment with sCART-mono and the p38 MAPK inhibitors by ELISA.

CD19+ cancer cells = experiment: CAR T cell killing of tumour cells in 24-hour co-culture (flow cytometry); type: cell-based, human; conditions: high dose only, CAR T to cancer cell ratio 1:1
Text: Raji immortalized human B cell line CD19-expressing cancer cells (available from the American Type Culture Collection) are acquired and stable transfection of the Raji cell line is generated with an mCherry reporter protein to facilitate identification of the cancer cells within co-cultures by detection of the mCherry protein fluorescence by flow cytometry.
as §3, §4, §5
Tumour cell death is observed by examining relative CAR T cell:tumour cell numbers by flow cytometry following 24 hour co-culture, as shown in FIG. 7.

THP-1 monocytes = experiment: IL-6 ELISA of THP-1 monocytes treated with sCAR; type: cell-based, human; conditions: sCAR stimulation, 24 hours; concentrations of Table 2
Description: In Example 3 below, sCAR (or smCAR) is added using a micropipette to an in vitro culture of monocyte cells of the human monocytic cell line THP-1, available from the American Type Culture Collection. The culture is incubated in a closed incubator at 37° C. with 5% CO2 and a suitably humid atmosphere for approximately 24 hours, following which cytokine release is observed. p38 MAPK activation and cytokine release are confirmed by evaluation of the presence of IL-6 in THP-1 cells using an enzyme-linked immunosorbent assay (ELISA; for which a kit is suitably obtainable from Thermo Fisher Scientific of Kingfisher Dr, Swindon SN3 5BZ, UK).
(i) Monocytes sCAR (or smCAR), produced as described in Example 1 above, is added to a monoculture of THP-1 monocytes in the presence of UR-13870, Ralimetinib or Acumapimod at each of the concentrations shown in Table 2 above at 37° C., 5% CO2 and a suitably humid environment for 24 hours.
Supernatant levels of IL-6 from the THP-1 monocyte monoculture with sCAR (or smCAR) are determined by ELISA.

HUVEC endothelial cells [4] = experiment: QPCR of ICAM1 in HUVEC cells treated with sCART-mono supernatant; type: cell-based, human; conditions: 24 hours
Description: as §6, §7, §8, §9
Reduced endothelial cell activation is evidenced by reduced ICAM1 expression in response to treatment with UR-13870, Acumapimod and Ralimetinib.

HUVEC endothelial cells [5] = experiment: IL-6 and IL-8 ELISA of HUVEC endothelial cells treated with sCAR; type: cell-based, human; conditions: sCAR stimulation, 24 hours; concentrations of Table 2
Description: as §1, §2
Supernatant levels of IL-6 and IL-8 from the HUVEC endothelial cell monoculture with sCAR (or smCAR) are determined by ELISA.

CAR T cells [6] = experiment: CAR T cell proliferation in CAR T cell:cancer cell co-culture (Cell Trace Violet, flow cytometry); type: cell-based, human; conditions: CAR T:tumour cell co-culture 1:1; concentrations of Table 2
Description: CAR T cell proliferation is confirmed by Cell Trace™ Violet staining of CAR T cells (staining agent having been added prior to addition of the T cells to the co-cultures with tumour cells). Staining may be observed, following co-culture, via flow cytometry.
as §3, §4, §5

CAR T cells [7] = experiment: T cell exhaustion markers TIM3 and LAG3 on CAR T cells in co-culture (flow cytometry); type: cell-based, human; conditions: CAR T:tumour cell co-culture, concentrations of Table 2; for number of LAG3+ CAR T cells: Ralimetinib 5 μM results to be disregarded
Description: as §3, §4, §5
Both T cell surface markers T cell immunoglobulin and mucin domain-containing protein 3 (TIM3/CD366) and Lymphocyte Activation Gene 3 (LAG3/CD223) are associated with T cell exhaustion and disease progression during immunotherapy treatment. Advantageously, all of UR-13870, Ralimetinib and Acumapimod reduce both the number of TIM3+ CAR T cells, and the number of LAG3+ CAR T cells. […] For LAG3+, the results for Ralimetinib at a 5 μM concentration appear to have been affected by experimental failure, and these may be disregarded accordingly.

CAR T cells [8] = conditions: in vitro expansion; inhibitor washed out before adoptive transfer; cited from earlier work

SMILES: Cc1ccc(C(=O)NC2CC2)cc1-n1ncc(C(=O)c2cccc(C#N)c2)c1N [Acumapimod, 3-[5-amino-4-(3-cyanobenzoyl)pyrazol-1-yl]-N-cyclopropyl-4-methylbenzamide]
- ICAM1 mRNA levels (HUVEC endothelial cells [1]): significantly reduce
- IL-6 mRNA levels (HUVEC endothelial cells [1]): significantly reduce
- VCAM1 mRNA levels (HUVEC endothelial cells [1]): reduced, albeit non-significantly
- TNF-α secretion (co-culture supernatant) (CAR T cells [2]): reduced
- IL-6 levels in supernatant (HUVEC endothelial cells [3]): reduced
- IL-8 levels in supernatant (HUVEC endothelial cells [3]): (albeit non-significant) downward trend
- CAR T cell-induced cancer cell death (percentage of residual tumour cells in the co-culture) (CD19+ cancer cells): maintain CAR T cell-induced cancer cell death
- IL-6 secretion by THP-1 monocytes (THP-1 monocytes): significantly reduce
- ICAM1 expression (endothelial cell activation) (HUVEC endothelial cells [4]): reduced
- IL-6 secretion by HUVEC cells (HUVEC endothelial cells [5]): significantly reduce
- IL-8 supernatant level, HUVEC cells (HUVEC endothelial cells [5]): reduced
- CAR T cell proliferation (Cell Trace Violet staining) (CAR T cells [6]): maintain CAR T cell proliferation
- number of TIM3+ CAR T cells (CAR T cells [7]): reduce
- number of LAG3+ CAR T cells (CAR T cells [7]): reduce

SMILES: Cc1ccc(-n2nc(C(C)(C)C)cc2NC(=O)Nc2ccc(OCCN3CCOCC3)c3ccccc23)cc1 [Doramapimod/BIRB796]
- CAR T cell phenotypes (CAR T cells [8]): promote desirable CAR T cell phenotypes in vitro

SMILES: CC(C)(C)Cn1c(N)nc2ccc(-c3[nH]c(C(C)(C)C)nc3-c3ccc(F)cc3)nc21 [Ralimetinib, 5-[2-tert-Butyl-4-(4-fluorophenyl)-1H-imidazol-5-yl]-3-(2,2-dimethylpropyl)imidazo[4,5-b]pyridin-2-amine]
- ICAM1 mRNA levels (HUVEC endothelial cells [1]): significantly reduce
- IL-6 mRNA levels (HUVEC endothelial cells [1]): significantly reduce
- VCAM1 mRNA levels (HUVEC endothelial cells [1]): reduced, albeit non-significantly
- TNF-α secretion (co-culture supernatant) (CAR T cells [2]): reduced
- IL-6 levels in supernatant (HUVEC endothelial cells [3]): reduced
- IL-8 levels in supernatant (HUVEC endothelial cells [3]): (albeit non-significant) downward trend
- CAR T cell-induced cancer cell death (percentage of residual tumour cells in the co-culture) (CD19+ cancer cells): maintain CAR T cell-induced cancer cell death
- IL-6 secretion by THP-1 monocytes (THP-1 monocytes): significantly reduce
- ICAM1 expression (endothelial cell activation) (HUVEC endothelial cells [4]): reduced
- IL-6 secretion by HUVEC cells (HUVEC endothelial cells [5]): significantly reduce
- IL-8 supernatant level, HUVEC cells (HUVEC endothelial cells [5]): reduced
- CAR T cell proliferation (Cell Trace Violet staining) (CAR T cells [6]): maintain CAR T cell proliferation
- number of TIM3+ CAR T cells (CAR T cells [7]): reduce
- number of LAG3+ CAR T cells (CAR T cells [7]): reduce
